Data on 17 molecules can be found in PMC9781101, “A High-Throughput Fluorescence Polarization-Based Assay for the SH2 Domain of STAT4” (Methods and Protocols, 2022).

Read-outs that look alike come from different tables or passages of the source. Non-standard residues stand in square brackets, D forms with d. Residues, ends and D or L forms follow the SMILES beside them. No end group written: not given here. *: point of attachment. 5FAM = O=C1OC2(c3ccc(O)cc3Oc3cc(O)ccc32)c2ccc(C(=O)*)cc21; pY = N[C@@H](Cc1ccc(OP(=O)(O)O)cc1)C(=O)O

The target of experiment [1] is T1, STAT4 SH2 domain (human STAT4 amino acids 136 to 705) (Homo sapiens, UniProt Q14765).
T1 sequence (Q14765 136-705): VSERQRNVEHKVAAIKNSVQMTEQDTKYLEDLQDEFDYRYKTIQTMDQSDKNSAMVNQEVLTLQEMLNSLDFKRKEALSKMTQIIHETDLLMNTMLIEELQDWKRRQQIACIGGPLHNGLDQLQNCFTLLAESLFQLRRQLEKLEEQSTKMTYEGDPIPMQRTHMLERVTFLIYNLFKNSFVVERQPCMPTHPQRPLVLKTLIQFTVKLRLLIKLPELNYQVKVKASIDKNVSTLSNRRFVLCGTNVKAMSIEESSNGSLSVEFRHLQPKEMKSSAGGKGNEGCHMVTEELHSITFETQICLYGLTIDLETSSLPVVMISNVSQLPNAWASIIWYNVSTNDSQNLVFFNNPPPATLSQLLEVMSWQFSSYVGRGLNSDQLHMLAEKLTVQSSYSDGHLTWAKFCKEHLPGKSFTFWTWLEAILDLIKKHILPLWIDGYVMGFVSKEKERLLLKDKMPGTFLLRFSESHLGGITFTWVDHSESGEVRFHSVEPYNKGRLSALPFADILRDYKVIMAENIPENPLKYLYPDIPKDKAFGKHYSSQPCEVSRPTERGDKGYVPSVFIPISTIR
Kind of experiment: Fluorescence polarization direct binding assay, labelled phosphopeptides to truncated STAT4. The conditions noted are these: for fold lower affinity for STAT4 than 5-CF-GpYLPQNID: ratio of Kd values. Background: Fluorescence polarisation rises when a labelled molecule tumbles more slowly, as on binding a larger partner.
Procedure: (§1) Binding of fluorescent-labelled peptides to the truncated STAT4 protein was analysed using an Infinite F500 plate reader (Tecan) as previously published for STAT5b [12]. Unless otherwise stated, FP assays were performed in a buffer consisting of 10 mM Tris/HCl, 50 mM NaCl, 1 mM EDTA, 0.1% (v/v) NP-40 substitute, 2% (v/v) DMSO and 1 mM DTT at a pH of 8.0. All steps were carried out at room temperature. For the binding assays shown in Figure 1, Figure 2 and Figure 3, the prediluted STAT4 protein was incubated for 1 h before addition of the fluorophore-labelled peptide, to mimic the incubation period with test compounds. For the inhibition assay shown in Figure 4, STAT4 was incubated with unlabelled peptide for 1 h before addition of the fluorophore-labelled peptide (final STAT4 concentration: 33 nM). Fluorescence polarization was read 1 h after addition of the labelled peptide, in non-treated black 384-well microplates (Corning). Fluorescent-labelled peptides were used at a final concentration of 10 nM unless otherwise stated. Binding and inhibition curves were plotted using OriginPro 2019 software (OriginLab). Fluorescence polarization values were normalized by subtracting the FP values of the wells containing the fluorophore-labelled peptides only. […] IC50 values from three independent experiments were used to calculate an average value and the corresponding standard deviation. IC50 values were converted to inhibition constants (Ki) using the published equation [20], with average values calculated as for IC50 values.

Experiment [2] deals with STAT3 (amino acids 127 to 722) (Mus musculus, UniProt P42227). Kind of experiment: Fluorescence polarization direct binding assay, STAT3. Also noted: species or system murine.
Sequence of STAT3 (amino acids 127 to 722) (P42227 127-722): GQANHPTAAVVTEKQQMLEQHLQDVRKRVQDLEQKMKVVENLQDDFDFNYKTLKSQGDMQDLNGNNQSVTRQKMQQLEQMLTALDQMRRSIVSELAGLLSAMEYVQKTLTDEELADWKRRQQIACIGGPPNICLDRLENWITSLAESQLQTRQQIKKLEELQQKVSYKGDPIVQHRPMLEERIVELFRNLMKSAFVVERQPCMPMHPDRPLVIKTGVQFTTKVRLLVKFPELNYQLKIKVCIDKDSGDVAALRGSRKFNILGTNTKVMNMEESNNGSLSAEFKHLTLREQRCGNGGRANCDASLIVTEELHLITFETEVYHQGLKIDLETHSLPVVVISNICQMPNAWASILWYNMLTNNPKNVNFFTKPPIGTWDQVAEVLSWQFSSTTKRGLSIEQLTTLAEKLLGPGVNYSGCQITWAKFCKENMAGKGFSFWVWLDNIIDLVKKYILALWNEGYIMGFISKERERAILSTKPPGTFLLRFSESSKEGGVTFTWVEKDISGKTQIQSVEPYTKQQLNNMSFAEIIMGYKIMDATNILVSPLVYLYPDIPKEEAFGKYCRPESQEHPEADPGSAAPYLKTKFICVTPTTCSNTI
The subject of another experiment is STAT4 R598A. To be noted: FP, Figure 1b, compared with STAT4 wild-type.
The target of experiment [3] is T2, STAT6 (amino acids 110 to 651) (Homo sapiens, UniProt P42226).
T2 sequence (P42226 110-651): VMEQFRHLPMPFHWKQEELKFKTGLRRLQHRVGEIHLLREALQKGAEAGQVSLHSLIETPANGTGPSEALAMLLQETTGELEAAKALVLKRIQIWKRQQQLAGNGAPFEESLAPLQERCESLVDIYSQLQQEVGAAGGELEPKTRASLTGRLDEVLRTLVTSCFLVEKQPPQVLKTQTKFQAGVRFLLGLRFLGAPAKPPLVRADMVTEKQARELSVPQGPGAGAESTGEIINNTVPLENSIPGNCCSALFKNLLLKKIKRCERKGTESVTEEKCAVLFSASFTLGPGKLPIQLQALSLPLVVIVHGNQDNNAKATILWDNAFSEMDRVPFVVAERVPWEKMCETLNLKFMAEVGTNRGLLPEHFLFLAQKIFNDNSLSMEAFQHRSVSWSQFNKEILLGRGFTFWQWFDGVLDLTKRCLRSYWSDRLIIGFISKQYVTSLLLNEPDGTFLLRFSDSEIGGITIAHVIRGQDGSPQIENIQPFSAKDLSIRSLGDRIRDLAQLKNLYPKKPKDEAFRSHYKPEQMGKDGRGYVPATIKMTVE
Kind of experiment: Fluorescence polarization direct binding assay, STAT6. The conditions noted are these: FP, 10 nM labelled peptide; Figure S1.

For experiment [4], the target named is T1, STAT4 SH2 domain (human STAT4 amino acids 136 to 705). In words: Fluorescence polarization competitive inhibition of binding between 5-CF-GpYLPQNID and STAT4. The conditions noted are these: for IC50: SD; for inhibition: 33 nM STAT4, 10 nM probe.
Procedure: as §1
In a further experiment the test system is STAT4. The conditions noted are these: cited from earlier work; for IC50: read-out: IC50 against STAT4 in an ELISA. (In general: An ELISA detects its analyte on a solid surface through an enzyme-linked reagent.)
Another experiment has as its target EPO receptor peptide (Homo sapiens, UniProt P19235, phosphotyrosine, 5-carboxyfluorescein). Kind of experiment: fluorescence polarization.
In another experiment the target is gp130 peptide (Homo sapiens, UniProt P40189, phosphotyrosine, 5-carboxyfluorescein). Kind of experiment: fluorescence polarization.
Another experiment addresses T3, IFN-γ receptor peptide (Homo sapiens, UniProt P15260, also: 5-carboxyfluorescein, site not given here).
T3 chain: G[pY]DKPHVL
Kind of experiment: fluorescence polarization.

Procedure for STAT4 R598A: Binding of fluorescent-labelled peptides to the truncated STAT4 protein was analysed using an Infinite F500 plate reader (Tecan) as previously published for STAT5b [12]. Unless otherwise stated, FP assays were performed in a buffer consisting of 10 mM Tris/HCl, 50 mM NaCl, 1 mM EDTA, 0.1% (v/v) NP-40 substitute, 2% (v/v) DMSO and 1 mM DTT at a pH of 8.0. All steps were carried out at room temperature. For the binding assays shown in Figure 1, Figure 2 and Figure 3, the prediluted STAT4 protein was incubated for 1 h before addition of the fluorophore-labelled peptide, to mimic the incubation period with test compounds. For the inhibition assay shown in Figure 4, STAT4 was incubated with unlabelled peptide for 1 h before addition of the fluorophore-labelled peptide (final STAT4 concentration: 33 nM). Fluorescence polarization was read 1 h after addition of the labelled peptide, in non-treated black 384-well microplates (Corning). Fluorescent-labelled peptides were used at a final concentration of 10 nM unless otherwise stated. […] Fluorescence polarization values were normalized by subtracting the FP values of the wells containing the fluorophore-labelled peptides only. […] IC50 values were converted to inhibition constants (Ki) using the published equation [20], with average values calculated as for IC50 values.

5-CF-GPMQSpTPLNG: the “binding to STAT4 (in words)” value in experiment [1] (FP, 10 nM labelled peptide) was “did not bind”.
`CC(C)C[C@H](NC(=O)[C@@H](NC(=O)[C@H](Cc1c[nH]cn1)NC(=O)[C@@H]1CCCN1C(=O)[C@H](CCCCN)NC(=O)[C@H](CC(=O)O)NC(=O)[C@H](Cc1ccc(OP(=O)(O)O)cc1)NC(=O)CNC(=O)c1ccc2c(c1)C(=O)OC21c2ccc(O)cc2Oc2cc(O)ccc21)C(C)C)C(=O)O` [5-CF-GpYDKPHVL] (5FAM-G[pY]DKPHVL-OH) came in with an equilibrium dissociation constant (Kd) in [1] (SD) of 1230 ± 284 nM.
Molecule `CC[C@H](C)[C@H](NC(=O)[C@H](CCC(=O)O)NC(=O)[C@H](CCC(=O)O)NC(=O)[C@H](Cc1ccc(OP(=O)(O)O)cc1)NC(=O)CNC(=O)c1ccc2c(c1)C(=O)OC21c2ccc(O)cc2Oc2cc(O)ccc21)C(=O)N1CCC[C@H]1C(=O)O` [5-CF-GpYEEIP] (5FAM-G[pY]EEIP-OH) had a Kd in experiment [1] greater than 2560 nM.
`CC[C@H](C)[C@H](NC(=O)[C@H](CC(N)=O)NC(=O)[C@H](CCC(N)=O)NC(=O)[C@@H]1CCCN1C(=O)[C@H](CC(C)C)NC(=O)[C@H](Cc1ccc(OP(=O)(O)O)cc1)NC(=O)CNC(=O)c1ccc2c(c1)C(=O)OC21c2ccc(O)cc2Oc2cc(O)ccc21)C(=O)N[C@@H](CC(=O)O)C(=O)O` [5-CF-GpYLPQNID] (5FAM-G[pY]LPQNID-OH): the Kd in experiment [2] (FP, 10 nM labelled peptide, Figure S1, mean ± SD of 3 independent experiments, SD) was 131 ± 6 nM; in [1] (SD), 34 ± 4 nM; in [3], greater than 2560 nM. The “weaker affinity for STAT3 than for STAT4” value in experiment [2] (ratio of Kd values STAT3 vs STAT4) was “fourfold”. For the same molecule, the “binding to STAT4 R598A (in words)” value with STAT4 R598A was “almost completely abolished”. Moreover, the “reduction in affinity for STAT4 by 8 h” value in experiment [1] (8 h after addition of labelled probe) is recorded as “no more than 35%”.
With `CC(C)C[C@H](NC(=O)[C@H](Cc1ccc(OP(=O)(O)O)cc1)NC(=O)CNC(=O)c1ccc2c(c1)C(=O)OC21c2ccc(O)cc2Oc2cc(O)ccc21)C(=O)N1CCC[C@H]1C(=O)N[C@@H](CCC(N)=O)C(=O)N[C@H](C(=O)N[C@H](C(N)=O)C(C)C)[C@@H](C)O` [5-CF-GpYLPQTV-NH2] (5FAM-G[pY]LPQTV-NH2), binding in experiment [1] (SD) was characterised by a dissociation constant (Kd) of 82 ± 2 nM. In addition, the “fold lower affinity for STAT4 than 5-CF-GpYLPQNID” value in [1] (10 nM labelled peptide) is 2.4 fold.
In experiment [1] (SD), `CC[C@H](C)[C@H](NC(=O)[C@H](CC(N)=O)NC(=O)[C@H](CO)NC(=O)[C@@H]1CCCN1C(=O)[C@H](CC(C)C)NC(=O)[C@H](Cc1ccc(OP(=O)(O)O)cc1)NC(=O)CNC(=O)c1ccc2c(c1)C(=O)OC21c2ccc(O)cc2Oc2cc(O)ccc21)C(=O)N[C@@H](CC(=O)O)C(=O)O` [5-CF-GpYLPSNID] (5FAM-G[pY]LPSNID-OH) yielded a dissociation constant Kd of 160 ± 6 nM.
`CC(C)C[C@H](NC(=O)[C@H](Cc1ccc(OP(=O)(O)O)cc1)NC(=O)CNC(=O)c1ccc2c(c1)C(=O)OC21c2ccc(O)cc2Oc2cc(O)ccc21)C(=O)N[C@H](C(=O)N[C@@H](CC(C)C)C(=O)N[C@@H](CC(=O)O)C(=O)N[C@@H](CCCCN)C(=O)N[C@@H](Cc1c[nH]c2ccccc12)C(=O)O)C(C)C` [5-CF-GpYLVLDKW] gave a Kd in experiment [1] (SD) of 267 ± 6 nM. In experiment [1] (10 nM labelled peptide), the “fold lower affinity for STAT4 than 5-CF-GpYLPQNID” value is given as “approximately 8 fold”.
The corresponding values for `CC[C@H](C)[C@H](NC(=O)[C@H](CC(C)C)NC(=O)[C@H](CC(=O)O)NC(=O)[C@H](CCC(N)=O)NC(=O)[C@H](Cc1c[nH]c2ccccc12)NC(=O)[C@@H]1CCCN1C(=O)[C@@H](NC(=O)[C@H](Cc1ccc(OP(=O)(O)O)cc1)NC(=O)CNC(=O)c1ccc2c(c1)C(=O)OC21c2ccc(O)cc2Oc2cc(O)ccc21)C(C)C)C(=O)O` [5-CF-GpYVPWQDLI] (5FAM-G[pY]VPWQDLI-OH) are 93 ± 8 nM and 3 fold.
Turning to `CC[C@H](C)[C@H](NC(=O)[C@H](CC(N)=O)NC(=O)[C@H](CCC(N)=O)NC(=O)[C@@H]1CCCN1C(=O)[C@H](CC(C)C)NC(=O)[C@H](Cc1ccc(OP(=O)(O)O)cc1)NC(=O)CNC(C)=O)C(=O)N[C@@H](CC(=O)O)C(=O)O` [Ac-GpYLPQNID] (Ac-G[pY]LPQNID-OH), in [4], the half-inhibitory concentration (IC50) was 490 ± 40 nM. Further, the “extrapolated maximum inhibition at infinite peptide concentrations” value in [4] (extrapolated from inhibition curve) is listed as 98.4 ± 0.9%. Also, the inhibition at 40 µM in [4] (read-out: Inhibition at 40 µM) was 96%.
In experiment [4], `CC(=O)N[C@@H](Cc1ccc(OP(=O)(O)O)cc1)C(=O)N[C@@H](CC(C)C)C(=O)N1CCC[C@H]1C(=O)N[C@@H](CCC(N)=O)C(=O)N[C@H](C(=O)N[C@H](C(N)=O)C(C)C)[C@@H](C)O` [Ac-pYLPQTV-NH2] yielded an IC50 of 1270 ± 100 nM. Further, in [4] (ratio of IC50 values), the “fold less active than Ac-GpYLPQNID” value came out at 2.6 fold.
For `CC(C)C[C@H](NC(=O)[C@H](Cc1c[nH]c2ccccc12)NC(=O)[C@H](CCCCN)NC(=O)[C@H](CC(=O)O)NC(=O)[C@H](CC(C)C)NC(=O)[C@@H](NC(=O)[C@H](CC(C)C)NC(=O)[C@H](Cc1ccc(OP(=O)(O)O)cc1)NC(=O)[C@@H](NC(=O)[C@@H](N)CC(=O)O)[C@@H](C)O)C(C)C)C(=O)O` [DTpYLVLDKWL] (H-DT[pY]LVLDKWL-OH), in [4], the 50% inhibitory concentration (IC50) came out at 4170 ± 130 nM.
Take `CC(C)C[C@H](NC(=O)[C@@H](NC(=O)[C@H](Cc1c[nH]cn1)NC(=O)[C@@H]1CCCN1C(=O)[C@H](CCCCN)NC(=O)[C@H](CC(=O)O)NC(=O)[C@H](Cc1ccc(OP(=O)(O)O)cc1)NC(=O)CN)C(C)C)C(=O)O` [GpYDKPHVL] (H-G[pY]DKPHVL-OH): the concentration for half-maximal inhibition (IC50) in experiment [4] worked out at 31400 ± 6700 nM.
Turning to GpYEEIP, the inhibition in [4] (read-out: Inhibition at 40 µM, 40 µM unlabelled peptide (highest concentration tested)) turned out to be 37 ± 4%.
As for MAGPMQSpTPLNGAKK, the inhibition in experiment [4] (read-out: Inhibition at 40 µM, 40 µM unlabelled peptide, n = 2) came to 2 ± 2%. For the same molecule, in [4] (up to 40 µM), the “inhibitory effect on STAT4 (in words)” value is on record as “no detectable inhibitory effect”.
On to SHEGpYLPQNID, for which the 50% inhibitory concentration (IC50) in the experiment with STAT4 was 390 nM.
Consider SHEGpYLPWNID, for which, in the experiment on STAT4, the “fold less potent against STAT4 than SHEGpYLPQNID in an ELISA” value is reported as 2-3 fold and the 50% inhibitory concentration (IC50) was 930 nM.

B1: STAT4 SH2 (protein)
chain: LPLWIDGYVMGFVSKEKERLLLKDKMPGTFLLRFSESHLGGITFTWVDHSESGEVRFHSVEPYNKGRLSALPFADILRDYKVIMAENIPENPLKYLYPDIPK
With B1, the Kd amounted to 267 nM in the experiment with EPO receptor peptide, 82 nM in the experiment with gp130 peptide and 1230 nM in the experiment with IFN-γ receptor peptide.

As a reminder, the Kd is the concentration at which binding is half-saturated. A higher Kd goes with a looser complex. Broadly, the IC50 is the concentration that gives 50% inhibition. The term inhibition denotes the change of the read-out against control, counted positive when it falls.
